Earlier results, collected in US9125411B2, “UV absorbers for reducing the E/Z isomerization of pesticides” (BASF SE, priority 2010, dated 2015).

metaflumizone
pesticidal activity of the E isomer relative to the Z isomer (E isomer higher than Z isomer): up to 10 fold
change of activity by irradiation by light (Takagi et al., Veterinary Parasitology, 2007): loses activity
